# Measured values: patent US12157882B2, “Lactobacillus plantarum strain ATG-K2, ATG-K6 or ATG-K8, and composition for preventing or treating vaginitis comprising same” (ATOGEN CO., LTD, priority 2018, dated 2024)
# What was measured:
# [1] = Ability to produce hydrogen peroxide (tetramethylbenzidine MRS agar); conditions: anaerobic, 37° C., about 48-72 hr, color change after exposure to air
# Protocol: For the ability to produce hydrogen peroxide as the function of each of the lactic-acid bacteria, an agar medium was prepared by adding 0.25 mg/ml of tetramethylbenzidine (Sigma-Aldrich, Germany) and […] to MRS (McGroarty et al., 1992). Here, the additives were added at about 50° C. after autoclaving of the MRS agar. Each of the lactic-acid bacteria was inoculated into the completely hardened test agar medium, placed in an anaerobic jar, and cultured at 37° C. for about 48-72 hr. After culture, the lactic-acid bacteria were taken out of the anaerobic jar and exposed to air, and the colony and the surrounding color change were observed.
# [2] = tested on: IL-6 in mouse macrophage cell line RAW264.7; assay: IL-6 ELISA, RAW264.7 cells treated with lactic-acid bacteria lysate; assay type: cell-based; conditions: lysate 100 μg/ml and 500 μg/ml, 24 hr
# Protocol: In order to measure the immunological effects of K2, K6 and K8 lactic-acid bacteria, a cytokine quantification experiment using cells was performed. The cells that were used were a mouse macrophage cell line RAW264.7, and the medium used for each cell experiment was a Gibco® Dulbecco's Modified Eagle Medium (DMEM, Gibco, USA) supplemented with 10% fetal bovine serum (Gibco, USA) and 1% penicillin/streptomycin cocktail (Sigma-Aldrich, Germany). RAW264.7 cells cultured at about 80-90% confluency before material treatment were recovered and seeded in an amount of 1×10^6 cells per well of a 24-well plate. After seeding, culture was carried out in an environment of 37° C. and 5% CO2 for 24 hr in order to realize attachment to the 24-well plate and stabilization thereof. Each well was treated with the lactic-acid bacteria lysate at concentrations of 100 μg/ml and 500 μg/ml, and 1 μg/ml of lipopolysaccharide (LPS, Sigma-Aldrich, Germany) was used as a positive control, and an experimental group not treated with any material was used as a negative control. The cells were cultured at 37° C. and 5% CO2 for 24 hr after material treatment, and the cell culture solution was recovered, followed by enzyme-linked immunosorbent assay (ELISA) for IL-6 and TNF-α. Measurement was performed for IL-6 using a Mouse IL-6 Quantikine ELISA Kit (R&D systems, USA) and for TNF-α using a Mouse TNF-alpha Quantikine ELISA Kit (R&D systems, USA).
# [3] = tested on: Gardnerella vaginalis KCTC5096 (GV); assay: Coaggregation of lactic-acid bacteria on vaginitis pathogen; assay type: cell-based; conditions: time given only for CA (8 hr)
# Protocol: (§1) Briefly, lactic-acid bacteria and vaginitis pathogens were centrifuged at 13,000 rpm for 5 min and the supernatant was decanted, after which the precipitated microorganism cells were washed using 1×PBS. After washing was repeated twice, the microorganisms were each suspended using 1×PBS until an absorbance OD600 of 1.0 was obtained. The lactic-acid bacteria suspension and the vaginitis pathogens were mixed at the same volume ratio, homogenized through vortexing, and allowed to stand, after which the supernatant of the mixed solution was carefully obtained at 1, 4, and 8 hr, and the absorbance thereof was measured. The suspension without mixing the microorganisms was used as a control. Based on the measured absorbance, coaggregation was calculated using the following equation. Here, ODpatho represents the absorbance of the vaginitis pathogen, ODLAB represents the absorbance of the lactic-acid bacteria, and ODmix represents the absorbance of the mixed solution of microorganisms. Coaggregation (%)={(ODpatho+ODLAB)/2−ODmix}/(ODpatho+ODLAB)/2
# [4] = tested on: Candida albicans KCTC7678 (CA); assay: as above; assay type: cell-based; conditions: at 8 hr
# Protocol: as §1
# [5] = tested on: Gardnerella vaginalis KCTC5096 (GV); assay: Growth inhibition by cell-free culture supernatant (CFCS); assay type: cell-based; conditions: CFCS at 1× concentration, culture for 48 hr, OD600
# Protocol: (§2) In order to measure the activity of the lactic-acid bacteria culture solution on inhibiting the growth of vaginitis pathogens, a 10-fold-concentrated cell-free culture supernatant (CFCS) was prepared. The culture solution of each of K2, K6 and K8 lactic-acid bacteria was centrifuged at 4,000 rpm for 25 min, thereby separating the cells of the lactic-acid bacteria and the culture supernatant from each other. The culture supernatant was filtered using a 0.2 μm pore syringe filter (Sartorius, Germany). The filtered culture supernatant was lyophilized and suspended in 1×PBS to afford a solution concentrated 10-fold compared to the volume of the initial culture solution. CA was inoculated at a concentration of 1×10^5 CFU/ml and GV was inoculated at a concentration of 1×10^6 CFU/ml under individual culture conditions. The CFCS of lactic-acid bacteria was added in a volume corresponding to 0.1 times the final volume to the vaginitis-pathogen-inoculated solution so as to reach 1×, and the test group not added with CFCS was used as a control. The mixed composition was cultured for 24 hr for CA and 48 hr for GV under individual vaginitis-pathogen culture conditions, and the absorbance was measured at a wavelength of OD600. Based on the measured absorbance, growth inhibition was determined using the following cytotoxicity calculation equation. In this equation, ODcontrol represents the absorbance of the control, and ODcfcs represents the absorbance of the CFCS-added group. Growth inhibition (%)=(ODcontrol−ODcfcs)/ODcontrol×100
# [6] = tested on: Candida albicans KCTC7678 (CA); assay: as above; assay type: cell-based; conditions: CFCS at 1× concentration, culture for 24 hr, OD600
# Protocol: as §2
# [7] = Bile salt hydrolase (BSH) activity on MRS agar with 0.5% sodium taurocholic acid; conditions: MRS agar with 0.5% (w/v) TDCA, anaerobic, 37° C., about 72 hr
# Protocol: In order to confirm the presence or absence of bile salt hydrolase (BSH) activity as the function of each of the lactic-acid bacteria, an experiment was performed in accordance with the method described in Dashkevicz and Feighner (1989). Briefly, an agar medium was prepared by adding 0.5% (w/v) sodium taurocholic acid (TDCA, Sigma-Aldrich, Germany) to MRS.
# [8] = ABTS radical-scavenging experiment with lactic-acid bacteria lysate; assay type: biochemical; conditions: for ABTS radical-scavenging activity: lactic-acid bacteria lysate, dark reaction 10 min, 734 nm; for antioxidant activity, ranking among strains: lysate, at 10 mg and above
# Protocol: In order to evaluate the antioxidant activity of each of the lactic-acid bacteria strains, a radical-scavenging experiment was conducted using 2,2′-azino-bis(3-ethylbenzthiazoline-6-sulfonic acid) (ABTS, Sigma-Aldrich, Germany). Briefly, lactic-acid bacteria were cultured for about 24 hr, allowed to react with lysozyme (Sigma-Aldrich, Germany) for 2 hr at 37° C., and lysed through sonication to obtain each lactic-acid bacteria lysate. The solid content thereof was measured using a water content analyzer, and a stock solution was adjusted to a concentration of 50 mg/ml. To prepare ABTS, 14 mM ABTS stock solution and 4.9 mM potassium persulfate were mixed at a volume ratio of 1:1, followed by dark reaction overnight so that the resulting mixture turned blue-green. A working solution obtained by diluting the corresponding solution until an absorbance OD-734 reached about 0.7 was added with 10% of each lactic-acid bacteria lysate sample, followed by dark reaction for 10 min, after which the absorbance at a wavelength of 734 nm was measured, and each measured value was substituted into the following equation. ABTS radical-scavenging activity (%)={1−(ODsample/ODcontrol)}×100
Substance,ability to produce hydrogen peroxide [1],IL-6 production compared to the control [2],coaggregation with GV [3] [%],coaggregation with CA [4] [%],growth inhibition of GV [5] [%],growth inhibition of CA [6] [%],bile salt hydrolase (BSH) activity [7],ABTS radical-scavenging activity [8],"antioxidant activity, ranking among strains [8]"
Lactobacillus plantarum ATG-K6 [Lb. plantarum ATG-K6],produced hydrogen peroxide,induced,30.39,58.57,28.25,82.11,exhibited BSH activity,exhibited radical-scavenging activity,greatest effect
Lactobacillus plantarum ATG-K2 [Lb. plantarum ATG-K2],produced hydrogen peroxide,induced,32.72,70.73,37.49,87.05,exhibited BSH activity,exhibited radical-scavenging activity,–
Lactobacillus plantarum ATG-K8 [Lb. plantarum ATG-K8],produced hydrogen peroxide,induced,20.45,57.88,44.60,81.34,exhibited BSH activity,exhibited radical-scavenging activity,next-greatest antioxidant activity
